{
  "source": "BindingDB's records for doi:10.1021/jm300377g",
  "about": "(University of Lille, 2012)",
  "data": [
    {"assay": "Inhibition of EthR in Mycobacterium tuberculosis H37Rv-GFP infected in mouse Raw 264.7 cells assessed as compound concentration allowing 0.1 uM ethionamide to inhibit 50% microbial growth by automated fluorescent confocal microscopy", "units": {"EC50": "nM"}, "values": [
      {"smiles": "COc1cccc(OCC(=O)Nc2ccc(-c3nc4ccccc4s3)cc2)c1", "EC50": 210},
      {"smiles": "Cc1ccc(-n2nc3ccc(NC(=O)COc4ccccc4C)cc3n2)cc1", "EC50": "> 10000"},
      {"smiles": "COc1cccc(SCC(=O)Nc2ccc(-c3nc4ccccc4s3)cc2)c1", "EC50": "> 10000"},
      {"smiles": "COc1cccc(OCC(=O)Nc2ccc(Cl)cc2)c1", "EC50": 1600},
      {"smiles": "Cc1ccc2cc(NC(=O)COc3ccccc3F)ccc2n1", "EC50": 2200},
      {"smiles": "N#Cc1cccc(OCC(=O)Nc2ccc(-c3nc4ccccc4s3)cc2)c1", "EC50": 340}
    ]}
  ]
}
